Source: PubChem BioAssay (NCI)
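Results reflect a 48-hour exposure of cells in 96-well plates to compound at five concentrations. At the TGI there is no net growth.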

Assays:
Test in all cases: NCI-60 cell line screen, 48 h
[1] = tested on: SK-MEL-28 melanoma
[2] = tested on: OVCAR-5 ovarian
[3] = tested on: CAKI-1 renal
[4] = tested on: NCI-H460 lung
[5] = tested on: M14 melanoma
[6] = tested on: OVCAR-3 ovarian
[7] = tested on: MOLT-4 leukemia
[8] = tested on: TK-10 renal
[9] = tested on: COLO 205 colon
[10] = tested on: UACC-257 melanoma
[11] = tested on: T-47D breast
[12] = tested on: SK-MEL-2 melanoma
[13] = tested on: RXF 393 renal
[14] = tested on: NCI/ADR-RES ovarian
[15] = tested on: U251 CNS
[16] = tested on: MCF7 breast
[17] = tested on: HOP-92 NSCLC
[18] = tested on: IGROV1 ovarian
[19] = tested on: RPMI-8226 leukemia
[20] = tested on: SK-OV-3 ovarian

SMILES | TGI [1] [µM] | TGI [2] [µM] | TGI [3] [µM] | TGI [4] [µM] | TGI [5] [µM] | TGI [6] [µM] | TGI [7] [µM] | TGI [8] [µM] | TGI [9] [µM] | TGI [10] [µM] | TGI [11] [µM] | TGI [12] [µM] | TGI [13] [µM] | TGI [14] [µM] | TGI [15] [µM] | TGI [16] [µM] | TGI [17] [µM] | TGI [18] [µM] | TGI [19] [µM] | TGI [20] [µM]
CC/C=C(\C(=C/CC)[N+](=O)[O-])[N+](=O)[O-] | 37.1 | 27.2 | 37.8 | 35.5 | 27 | 30.5 | 64.9 | 33.7 | 37 | 32.1 | 55.6 | > 100 | 31 | 52.7 | 34.3 | 38.1 | 45.1 | 35.9 | 47.6 | > 100
COC(=O)N1CC2C3C4CC(C(c5ccccc5)=C4c4ccccc4)C3C21 (stereo not given) | 35.4 | 91.2 | 32.8 | 32.2 | 51.9 | 36.7 | 38.6 | 30.8 | 45.2 | 28.9 | 32.9 | 50.5 | 39.9 | 35.4 | 27.5 | 78.3 | 24.5 | 45.6 | 53.4 | 70.2
